Laboratory results reported in the supplement of paper PMC10307832.

Legend:
Assay in all cases: relative viability (nuclei count vs DMSO), 5 days (fraction); higher = more cells survive
Alisertib + Pemetrexed = compound: COc1cc(Nc2ncc3c(n2)-c2ccc(Cl)cc2C(c2c(F)cccc2OC)=NC3)ccc1C(=O)O [Alisertib] + Nc1nc2[nH]cc(CCc3ccc(C(=O)N[C@@H](CCC(=O)O)C(=O)O)cc3)c2c(=O)[nH]1 [Pemetrexed] (partner 0.2 µM)
Summary of the method: (§1)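 Lung cancer cell lines in 1536-well plates were dosed by pin tool the day after seeding, either with one drug alone or with a fixed anchor-drug dose plus five library-drug doses (not always all listed) in √10 steps. After 5 days, cells were fixed and their nuclei stained in one step (final 0.05% Triton X-100, 1% formaldehyde, 1 ug/ml Hoechst), then counted on 4× images. Relative viability is the nuclei count in treated wells divided by that in vehicle wells. Values are medians of duplicate plates.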

Alisertib + OSI-027 = compound: COc1cc(Nc2ncc3c(n2)-c2ccc(Cl)cc2C(c2c(F)cccc2OC)=NC3)ccc1C(=O)O [Alisertib] + COc1cccc2cc(-c3nc([C@H]4CC[C@H](C(=O)O)CC4)n4ncnc(N)c34)[nH]c12 [OSI-027] (partner 0.5 µM)
Summary of the method: as §1

Alisertib + Foretinib = compound: COc1cc(Nc2ncc3c(n2)-c2ccc(Cl)cc2C(c2c(F)cccc2OC)=NC3)ccc1C(=O)O [Alisertib] + COc1cc2c(Oc3ccc(NC(=O)C4(C(=O)Nc5ccc(F)cc5)CC4)cc3F)ccnc2cc1OCCCN1CCOCC1 [Foretinib] (partner 0.25 µM)
Summary of the method: as §1

Alisertib + AZD7762 = compound: COc1cc(Nc2ncc3c(n2)-c2ccc(Cl)cc2C(c2c(F)cccc2OC)=NC3)ccc1C(=O)O [Alisertib] + NC(=O)Nc1cc(-c2cccc(F)c2)sc1C(=O)N[C@H]1CCCNC1 [AZD7762] (partner 0.2 µM)
Summary of the method: as §1

Cell Line | relative viability (Alisertib + Pemetrexed; first compound 0.005 µM) | relative viability (Alisertib + Pemetrexed; first compound 0.01581 µM) | relative viability (Alisertib + Pemetrexed; first compound 0.05 µM) | relative viability (Alisertib + Pemetrexed; first compound 0.1581 µM) | relative viability (Alisertib + Pemetrexed; first compound 0.5 µM) | relative viability (Alisertib + OSI-027; first compound 0.005 µM) | relative viability (Alisertib + OSI-027; first compound 0.01581 µM) | relative viability (Alisertib + OSI-027; first compound 0.05 µM) | relative viability (Alisertib + OSI-027; first compound 0.1581 µM) | relative viability (Alisertib + OSI-027; first compound 0.5 µM) | relative viability (Alisertib + Foretinib; first compound 0.005 µM) | relative viability (Alisertib + Foretinib; first compound 0.01581 µM) | relative viability (Alisertib + Foretinib; first compound 0.05 µM) | relative viability (Alisertib + Foretinib; first compound 0.1581 µM) | relative viability (Alisertib + Foretinib; first compound 0.5 µM) | relative viability (Alisertib + AZD7762; first compound 0.005 µM) | relative viability (Alisertib + AZD7762; first compound 0.01581 µM) | relative viability (Alisertib + AZD7762; first compound 0.05 µM) | relative viability (Alisertib + AZD7762; first compound 0.1581 µM) | relative viability (Alisertib + AZD7762; first compound 0.5 µM)
COR-L 105 | 1.08 | 0.995 | 0.952 | 0.607 | 0.298 | 0.59 | 0.66 | 0.546 | 0.248 | 0.267 | 0.937 | 1.11 | 0.919 | 0.662 | 0.271 | – | – | – | – | –
LK-2 | 0.286 | 0.236 | 0.188 | 0.141 | 0.148 | 0.224 | 0.232 | 0.185 | 0.166 | 0.17 | 0.955 | 0.979 | 0.601 | 0.245 | 0.189 | 0.321 | 0.382 | 0.205 | 0.153 | 0.14
NCI-H838 | 0.222 | 0.233 | 0.198 | 0.2 | 0.17 | 0.334 | 0.397 | 0.311 | 0.16 | 0.119 | 1.03 | 0.971 | 0.605 | 0.394 | 0.202 | 0.943 | 0.852 | 0.715 | 0.669 | 0.626
SK-LU-1 | 0.972 | 0.722 | 0.405 | 0.333 | 0.267 | 0.369 | 0.233 | 0.182 | 0.18 | 0.163 | 0.818 | 0.66 | 0.324 | 0.227 | 0.182 | – | – | – | – | –
NCI-H2023 | 0.192 | 0.222 | 0.177 | 0.152 | 0.101 | 0.333 | 0.324 | 0.317 | 0.162 | 0.0743 | 0.936 | 0.743 | 0.501 | 0.46 | 0.0916 | – | – | – | – | –
NCI-H322M | 0.588 | 0.628 | 0.561 | 0.4 | 0.427 | 0.568 | 0.517 | 0.466 | 0.326 | 0.351 | 0.896 | 0.925 | 0.649 | 0.402 | 0.397 | 0.435 | 0.565 | 0.47 | 0.393 | 0.395
NCI-H1666 | 0.829 | 0.844 | 0.791 | 0.672 | 0.537 | 0.7 | 0.7 | 0.592 | 0.494 | 0.367 | 0.841 | 0.82 | 0.597 | 0.415 | 0.403 | 0.768 | 0.698 | 0.636 | 0.477 | 0.375
NCI-H1648 | – | 0.658 | 0.752 | 0.27 | 0.276 | 0.258 | 0.242 | 0.23 | 0.252 | 0.239 | – | – | – | – | – | – | 0.654 | 0.62 | 0.314 | 0.223
NCI-H2087 | 0.641 | 0.632 | 0.423 | 0.163 | 0.144 | 0.542 | 0.521 | 0.204 | 0.111 | 0.098 | 1.12 | 0.856 | 0.176 | 0.172 | 0.119 | 1.17 | 1.29 | 0.293 | 0.214 | 0.185
LU99A | 0.205 | 0.193 | 0.185 | 0.161 | 0.145 | 0.301 | 0.324 | 0.259 | 0.204 | 0.164 | 0.741 | 0.762 | 0.361 | 0.27 | 0.205 | 0.502 | 0.296 | 0.158 | 0.131 | 0.136
HCC-366 | 0.169 | 0.131 | 0.0451 | 0.0421 | 0.0514 | 0.973 | 0.696 | 0.0686 | 0.04 | 0.0334 | 0.975 | 0.156 | 0.035 | 0.054 | 0.055 | 0.351 | 0.396 | 0.0718 | 0.0314 | 0.027
EKVX | 0.364 | 0.377 | 0.266 | 0.172 | 0.187 | 0.654 | 0.631 | 0.251 | 0.158 | 0.136 | 0.954 | 0.812 | 0.194 | 0.195 | 0.202 | 0.554 | 0.46 | 0.278 | 0.132 | 0.172
NCI-H522 | 0.743 | 1.22 | 0.989 | 0.637 | 0.516 | 0.684 | 0.618 | 0.69 | 0.532 | 0.433 | – | – | – | – | – | 0.818 | 0.843 | 0.785 | 0.406 | 0.411
NCI-H1755 | 0.443 | 0.399 | 0.386 | 0.321 | 0.34 | 0.638 | 0.645 | 0.541 | 0.341 | 0.27 | 0.85 | 0.846 | 0.615 | 0.532 | 0.325 | 0.478 | 0.427 | 0.332 | 0.328 | 0.259
NCI-H650 | 0.739 | 0.825 | 0.35 | 0.262 | 0.2 | 0.396 | 0.459 | 0.239 | 0.203 | 0.159 | 0.926 | 0.902 | 0.407 | 0.226 | 0.222 | 0.772 | 0.738 | 0.37 | 0.255 | 0.259
LC-2-ad | 0.263 | 0.228 | 0.215 | 0.177 | 0.175 | 0.587 | 0.368 | 0.441 | 0.307 | 0.268 | 0.803 | 0.597 | 0.503 | 0.351 | 0.285 | 0.768 | 0.5 | 0.224 | 0.185 | 0.15
NCI-H1793 | 0.551 | 0.339 | 0.356 | 0.232 | 0.209 | 0.257 | 0.149 | 0.213 | 0.193 | 0.149 | 0.715 | 0.286 | 0.232 | 0.194 | 0.138 | 0.327 | 0.166 | 0.215 | 0.148 | 0.115
